# Experimental data reported in paper PMC5871875 (Journal of medicinal chemistry, 2017).
# Tests used:
# AEP [1] = biological target: T1, AEP (Homo sapiens, UniProt Q99538); test: IC50 assay against pure AEP; format: biochemical
# T1 sequence (Q99538 18-323 limits assumed): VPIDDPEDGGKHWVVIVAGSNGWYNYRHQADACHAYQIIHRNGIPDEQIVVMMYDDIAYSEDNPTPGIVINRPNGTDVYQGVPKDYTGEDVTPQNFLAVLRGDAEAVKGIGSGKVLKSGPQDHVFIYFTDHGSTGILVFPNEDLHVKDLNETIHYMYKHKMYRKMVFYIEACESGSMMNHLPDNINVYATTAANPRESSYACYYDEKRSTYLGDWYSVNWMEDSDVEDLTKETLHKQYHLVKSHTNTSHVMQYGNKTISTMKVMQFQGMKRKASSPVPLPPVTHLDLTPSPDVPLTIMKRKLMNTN
# cathepsin-L = cathepsin-L (Homo sapiens, UniProt P07711); test: Inhibition specificity assay, cathepsin-L; format: biochemical
# CaCo-2 cells = test: Caco-2 permeability assay; format: in vitro ADME
# AEP [2] = biological target: T1, AEP; test: Time course inactivation assay of AEP; format: biochemical; conditions: nonlinear progress curves
# [3] = in the presence or absence of NADPH; cited from earlier work
# AEP [4] = biological target: T1, AEP; test: Inhibition kinetics assay of AEP
# [5] = tested on: major cytochrome P450 isozymes; conditions: cited from earlier work
# purified, active AEP = biological target: T2, purified, active AEP (Homo sapiens, UniProt Q99538); test: SAR analysis: residual activity of purified, active AEP; conditions: 1 μM compound, 50 nM AEP, 5 μM substrate peptide
# T2 sequence (Q99538 18-323 limits assumed): T1 sequence (Q99538 18-323 limits assumed)
# [6] = Toxicity observations in treated tumor-bearing mice; format: in vivo, nude mice; conditions: 3 or 10 mg/kg oral, 42 days
# MDA-MB-231 cells [7] = test: Cell proliferation/viability; format: cell-based, human; conditions: MDA-MB-231, doses of the MMP-2 cleavage experiment (1-10 μM)
# MDA-MB-231 cells [8] = test: In vivo spontaneous metastasis assay; parameters: species or system nude mice; conditions: 42 days
# [9] = tested on: endogenous MMP-2 cleavage; test: Gelatin zymography: endogenous MMP-2 cleavage in MDA-MB-231 cells; format: cell-based, human; conditions: MDA-MB-231, 1, 2, 5 and 10 μM
# Sequence of cathepsin-L (P07711 114-333, species assumed): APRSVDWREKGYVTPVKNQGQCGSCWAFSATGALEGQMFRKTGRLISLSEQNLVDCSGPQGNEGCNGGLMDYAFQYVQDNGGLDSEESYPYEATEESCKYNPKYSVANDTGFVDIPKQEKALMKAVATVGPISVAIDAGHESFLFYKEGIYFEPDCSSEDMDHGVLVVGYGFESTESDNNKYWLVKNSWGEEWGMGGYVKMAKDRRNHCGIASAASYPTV
compound,measurement,setting,value
Cn1c(=O)c2c(nc(S)n2C)n(C)c1=O [38p],increased potency against AEP compared to compound 38,AEP [1],about 2 fold
same,IC50 against AEP,"AEP [1]; 10 μM Cbz-Ala-Ala-Asn-AMC, 50 nM AEP",submicromolar
same,inhibition of cathepsin-L,cathepsin-L,able to inhibit
Cn1c(=O)[nH]c(=O)c2c1nc(S)n2CC(O)COc1ccc(Cl)cc1 (centres unmarked) [compound 38],Caco-2 cell permeability (in words),CaCo-2 cells,minimal
same,binding behaviour from time course inactivation,AEP [2],slow-binding inhibitor
same,stability in liver microsomes,[3],stable
same,mechanism of inhibition,AEP [4],competitively inhibits
same,inhibition of major cytochrome P450 isozymes,[5],did not significantly inhibit
Cn1c(=O)[nH]c(=O)c2c1nc(S)n2C[C@H](O)COc1ccccc1 [compound 38k],loss in activity relative to parent compound 38,"purified, active AEP",> 2 fold
CCn1c(=O)c2c(nc(S)n2C)n(C)c1=O [compound 38u],complete blood count (CBC) versus vehicle,[6],no significant difference
same,"pathological examination of major organs (kidney, liver, bone marrow)",[6],did not exhibit any significant amount of toxicity
same,size of the liver versus vehicle,[6],remained similar
same,size of the spleen versus control,[6],slight increase
same,toxicity by body weight versus control,[6],no significant toxicity
same,cell viability,MDA-MB-231 cells [7],not affected
same,number of metastatic lung nodules,MDA-MB-231 cells [8]; 3 mg/kg oral gavage,significantly decreased
same,lung metastasis (nodules),MDA-MB-231 cells [8]; 10 mg/kg oral gavage,almost completely prevented
same,mammary tumor weight or volume versus control,"MDA-MB-231 cells [8]; 3 or 10 mg/kg oral, data not shown",no significant difference
same,inhibition of cathepsin-L,cathepsin-L,able to inhibit
same,endogenous MMP-2 cleavage,[9],inhibited in a dose-dependent manner
